According to US11191293B2, “Nutritional composition and infant formula for promoting myelination of the brain” (NESTEC S.A., priority 2015, dated 2021):

Key:
[1] = tested on: neural progenitor cell (NPCs); assay: Neurosphere counts in 96-well plates; type: cell-based, mouse; settings: cells grown for 2 days
Description: Generation of neural progenitor cell (NPCs) libraries:
dissociation of E14 mouse neocortex
E14 pup brains were harvested and placed in ice cold DPBS(1X)+10% Pen/Strep, then they were dissected using a dissecting microscope. From each pup, one brain hemisphere was placed in 2 ml of Neurobasal media/10% P/S/10X Hepes and another brain hemisphere was placed in another tube.
The tissue from each tube was aseptically and manually dissociate into single cells, neurobasal complete medium was added and centrifuged at 130G for 5 min. The tissue was then re-suspended in neurobasal complete media with GF and placed in a corning suspension culture dish 100 mm×20 mm (#430591). Cells were passage twice using a 1:3 ratio, after what they were centrifuged (130 g 5 min), resuspended in freezing media (10% DMSO and neurobasal complete media, no GF) and frozen in liquid nitrogen (LN2).
Corning Costar 3474, 96 well plate, Ultra low attachment
3-4 mLs of cells were taken out of the tilted plate and add to a 15 ml conical. Some of the remaining media was used to rinse down the plate. All remaining media was drawn up and put into a 15 ml conical tube, and Spun at 130 G for 5 min. All media was removed. The cells were gently resuspended in 5 mls of warm PBS, spun again. PBS was then removed and the cells were then gently resuspended in 500 μl of Accutase(Corning™ Accutase™ Cell Detachment Solution, #25058Cl). The cells were then Pipetted gently with a 1000 μl tip to break up pellet, and then they were placed in a shaking water bath for 5-10 minutes, after which time they were swirled by hand frequently.
Control and compound media was made with #2 media and contain 29 uM Choline, low (5 uM) and medium (70 uM) choline media was made with #3 media.
Clumps were no bigger than ˜3-5 cells. 5-10 mls of warm media (GF) was added to dilute enzyme. 2 mls of media was added. […]
in AB staining solution for five min. Imaging was carried out using a GE Cytell imager or LSM 710, Zeiss confocal microscope and the diameters of neurospheres with ImageJ software (National Institutes of Health) was analysed.

[2] = tested on: neural progenitor cell (NPCs); assay: Monolayer culture NPC proliferation assay; type: cell-based, mouse; settings: 3 days culture
Description: 24 well glass bottom plates (Mat Tek P24G-1.0-13-F Case, glass bottom 24 well plates) were coated with poly-L-ornithin (Sigma P4957) and Fibronection (Sigma F1141) before use in the assay below.
Cells were plated (10,000 cells per well) in Complete media with GF for 24 hours (500 ul per well). Once cells had been attached they were switched to choline deficient media, other compound media, or appropriate media.
After 24 h, it was ensured that cells had attached to the plate then the medium was carefully removed. 500 μL of compound media plus GF.was added. The cells were cultured for 3 days in appropriate media.
Control and compound media was made with #2 media and contains 29 uM Choline, Low (5 uM) and medium (70 uM) choline media was made with #3 media.
EDU incorporation was measured using Click-iT® EdU Alexa Fluor® 555 Imaging Kit (Life technologies, #c10338).
At the end of day 3 EdU was added to each well at 10 μM for 30 minutes prior to fixation. For fixation and subsequent immunohistochemical analysis, the medium was removed, the cells were rinsed once with 1X PBS for 5 min, and fixed with 4% PFA in 1X PBS for 15 min at 4° C., then the cells were washed twice with 1X PBS for 5 min, left in 1X PBS, wrapped in foil and leave overnight at 4° C., or staining was proceeded with.
PBS was removed and enough AB staining solution (1% Goat
serum, 1xPBS, and 0.1% triton X) added to cover the bottom, the blockwas kept at room temp for 1 hour. The cells were stained for EDU. The cells were Incubated for 30 min at room temp, in the dark. The cells were washed with 1X PBS and stained with Dapi 1:5000 ul for 15 min. The cells were washed once with 1X PBS, then left in PBS at 4° C., or Imaged immediately using a GE Cytell imager (cell viability
application), or LSM 710, Zeiss confocal microscope (with ImageJ software (National Institutes of Health) analysis).

[3] = tested on: brain myelination (myelin water fraction); assay: Cross-sectional correlation of infant formula nutrient content with brain myelination (mcDESPOT MRI myelin water fraction); type: in vivo, human; settings: formula-fed children up to 5 years of age; brain regions named per nutrient
Description: MRI (Magnetic Resonance Imaging): MRI brain scans of infants and children between 0 and 5 years were acquired using a white matter imaging technique. This technique provides a quantitative measure, the Myelin Water Fraction (MWF), which is a surrogate marker of myelin content in the brain. When mapped as a function of time across early childhood, myelination trajectories can be generated.
Infant formula composition: six infant formulas fed to infants participating in a study were analyzed for their composition/level of myelin-relevant nutrients.
Infants included in this study were drawn from a larger longitudinal study of normal brain and behavioral development: the Brown University Assessment of Myelination and Behavior Across Maturation (BAMBAM). To focus on neurotypical development, children with known potential risk factors for learning, neurologic, or psychiatric disorders were specifically excluded during recruitment and enrollment. Thus, children with in utero alcohol or illicit substance exposure, premature (<37 weeks gestation) or multiple birth, fetal ultrasound abnormalities, complicated pregnancy (e.g., preeclampsia), APGAR scores <8, NICU admission, neurological disorder (e.g., head injury, epilepsy), psychiatric or developmental disorders in the infant, parents or siblings (including maternal depression requiring medication) were excluded. Ongoing screenings, such as the MCAT for autism, or CBCL for behavioral problems, were further used to remove enrolled children with clinically concerning behaviors or overt medical conditions (such as autism spectrum disorders).
A combination of retrospective and prospective data were acquired from parents via detailed medical histories and parental interview on the type of infant formula used, percentage of breastfeeding to formula feeding, and length of exclusive breastfeeding. This information was updated at each study visit, which occurred approximately every 6 months for children under 2 years, and yearly for older children. Using this information, children were categorized into one of 2 groups: #1. Exclusively formula-fed; and #2. Exclusively breastfed for at least 90 days (3 months). Children who were fed a combination of breastmilk and formula within 3 months were excluded from our analysis. Infants within the exclusively formula-fed group were further sub-divided based on parental reports of the main infant formula used throughout the first 3 months. Main formula was defined as that given 90% of the time or more (in the case were parents used an alternate brand during vacation, for example).
Using these criteria, 94 exclusively formula-fed infants and young children were selected into group #1. These included 13 children who received formula #2; 28 who received formula #5; 8 who received formula #3; 39 who received formula #4; 5 who received formula #1 and 1 who received formula #6. A sample of 52 exclusively breast-fed infants were also selected and matched to the over formula-fed group with regards to mean age, gestation duration, birth weight, male:female ratio, ethnicity ratio, maternal education, family size, and number of languages spoken in the home (in addition to English).
Each infant was scanned using the mcDESPOT (multicomponent Driven Equilibrium Single Pulse Observation of T1 and T2) white matter imaging technique Deoni et al. (Magn. Reson. Med. 2008, 60:1372-1387), which provides a quantitative measure of the myelin water fraction (MWF)—a measure of myelin content—at each point throughout the brain. All infants were scanned during natural (i.e. non-sedated) sleep using acoustically-muffled mcDESPOT imaging protocols. Total imaging times ranged from 19 minutes for the youngest toddlers to 24 minutes for the older 4 year-old children.

Substance: Sphingomyelin
- number of neurospheres, Average (Mean) ([1]; Sphingomyelin High (Dose 3, 1 μm)): 219
- number of neurospheres, Average (Mean) ([1]; Sphingomyelin Low (Dose 1, 10 nM)): 94
- number of neurospheres, Average (Mean) ([1]; Sphingomyelin Med (Dose 2, 100 nM)): 121
- neuronal proliferation, DAPI ([2]; Sphingomyelin high (Dose 3, 1 μm)): 305
- neuronal proliferation, DAPI ([2]; Sphingomyelin low (Dose 1, 10 nM)): 280
- neuronal proliferation, DAPI ([2]; Sphingomyelin med (Dose 2, 100 nM)): 314
- association of nutrient content of infant formula with myelination (myelin water fraction) over time in the brain [3]: an association with myelination (myelin water fraction) was observed
